Results as given in patent US8993756B2 (Merck Sharp & Dohme Corp., priority 2011, dated 2015).
pIC50: −log10 of the molar value.

What was measured:
JAK2 = JAK2 (Homo sapiens (Human), UniProt O60674); assay: Jak Biochemical HTRF Assay (JAK2); settings: recombinant GST-tagged catalytic domain, [ATP] 8.5 μM
JAK3 = JAK3 (Homo sapiens (Human), UniProt P52333); assay: Jak Biochemical HTRF Assay (JAK3); settings: recombinant GST-tagged catalytic domain, [ATP] 2.9 μM
JAK3, sequence (P52333 822-1111): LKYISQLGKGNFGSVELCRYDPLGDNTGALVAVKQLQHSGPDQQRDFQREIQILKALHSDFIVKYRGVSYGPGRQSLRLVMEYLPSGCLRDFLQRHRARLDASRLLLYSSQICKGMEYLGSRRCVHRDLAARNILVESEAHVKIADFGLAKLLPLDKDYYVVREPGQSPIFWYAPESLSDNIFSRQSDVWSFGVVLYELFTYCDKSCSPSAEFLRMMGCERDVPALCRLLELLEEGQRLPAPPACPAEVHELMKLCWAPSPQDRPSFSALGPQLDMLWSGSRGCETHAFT

JAK2, sequence (O60674 849-1124): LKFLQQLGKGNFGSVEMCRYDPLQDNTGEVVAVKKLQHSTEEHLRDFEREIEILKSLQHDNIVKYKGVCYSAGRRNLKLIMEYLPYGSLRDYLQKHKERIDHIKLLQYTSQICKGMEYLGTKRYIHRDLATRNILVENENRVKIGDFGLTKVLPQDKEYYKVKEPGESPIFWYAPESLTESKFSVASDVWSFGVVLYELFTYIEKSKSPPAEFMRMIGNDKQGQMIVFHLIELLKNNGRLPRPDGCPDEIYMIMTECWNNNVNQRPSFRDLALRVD

| SMILES | pIC50 (JAK2) | pIC50 (JAK3) | pIC50 (JAK2; given as range class) | pIC50 (JAK3; given as range class) |
| --- | --- | --- | --- | --- |
| C=CC(=O)Nc1cc(-c2ncnc3[nH]cc(C(=O)OCC)c23)ccc1C [Example 4-11, ethyl 4-[3-(acryloylamino)-4-methylphenyl]-7H-pyrrolo[2,3-d]pyrimidine-5-carboxylate] | < 5.83 | 10.48 |  |  |
| CCOC(=O)c1c[nH]c2ncnc(C3=CCCN(C(=O)OC(C)(C)C)C3)c12 [Example 1-19, ethyl 4-[1-(tert-butoxycarbonyl)-1,2,5,6-tetrahydropyridin-3-yl]-7H-pyrrolo[2,3-d]pyrimidine-5-carboxylate] |  |  | < 6.30 | 6.30 to 8.00 |
| C=C(C)C(=O)Nc1cccc(-c2ncnc3[nH]cc(C(=O)OCC)c23)c1 [Example 4-1, Ethyl-4-{3-[(2-methylacryloyl)amino]phenyl}-7H-pyrrolo[2,3-d]pyrimidine-5-carboxylate] | < 5.83 | 9.82 |  |  |
| C=C(C)C(=O)Nc1cc(F)cc(-c2ncnc3[nH]cc(C(=O)OCC)c23)c1 [Example 4-19, ethyl 4-{3-fluoro-5-[(2-methylacryloyl)amino]phenyl}-7H-pyrrolo[2,3-d]pyrimidine-5-carboxylate] | < 5.83 | 10.30 |  |  |
| CCOC(=O)c1c[nH]c2ncnc(-c3cccc(NC(=O)/C=C/COC)c3)c12 [Example 5-8, ethyl 4-(3-{[(2E)-4-methoxybut-2-enoyl]amino}phenyl)-7H-pyrrolo[2,3-d]pyrimidine-5-carboxylate] | < 5.83 | 8.68 |  |  |
| CCOC(=O)c1c[nH]c2ncnc(-c3cccc(NC(=O)/C=C/C(F)(F)F)c3)c12 [Example 5-42, ethyl 4-(3-{[(2E)-4,4,4-trifluorobut-2-enoyl]amino}phenyl)-7H-pyrrolo[2,3-d]pyrimidine-5-carboxylate] |  |  | < 6.30 | 6.30 to 8.00 |
| C=CC(=O)Nc1cc(-c2ncnc3[nH]cc(C(=O)OCC)c23)ccc1OC [Example 4-15, ethyl 4-[3-(acryloylamino)-4-methoxyphenyl]-7H-pyrrolo[2,3-d]pyrimidine-5-carboxylate] | < 5.83 | 9.96 |  |  |
| C=CC(=O)N1CCc2ccc(-c3ncnc4[nH]cc(C(=O)OCC)c34)cc21 [Example 4-20, ethyl 4-(1-acryloyl-2,3-dihydro-1H-indol-6-yl)-7H-pyrrolo[2,3-d]pyrimidine-5-carboxylate] | < 5.83 | 10.09 |  |  |
| C=C(C)C(=O)Nc1cc(-c2ncnc3[nH]cc(C(=O)OCC)c23)ccc1Cl [Example 4-9, ethyl 4-{4-chloro-3-[(2-methylacryloyl)amino]phenyl}-7H-pyrrolo[2,3-d]pyrimidine-5-carboxylate] | < 5.83 | 10.89 |  |  |
| CCOC(=O)c1c[nH]c2ncnc(-c3ccccc3)c12 [Example 1-1, Ethyl 4-phenyl-7H-pyrrolo[2,3-d]pyrimidine-5-carboxylate] | 7.04 | 8.26 |  |  |
| CC#CC(=O)Nc1cccc(-c2ncnc3[nH]cc(C(=O)OCC)c23)c1 [Example 5-3, ethyl 4-[3-(but-2-ynoylamino)phenyl]-7H-pyrrolo[2,3-d]pyrimidine-5-carboxylate] | < 5.83 | 10.14 |  |  |
| CCOC(=O)c1c[nH]c2ncnc(-c3cnn(C)c3)c12 [Example 1-27, ethyl 4-(1-methyl-1H-pyrazol-4-yl)-7H-pyrrolo[2,3-d]pyrimidine-5-carboxylate] |  |  | < 6.30 | 6.30 to 8.00 |
| CCOC(=O)c1c[nH]c2ncnc(-c3ccnc(CO)c3)c12 [Example 1-60, ethyl 4-[2-(hydroxymethyl)pyridin-4-yl]-7H-pyrrolo[2,3-d]pyrimidine-5-carboxylate] |  |  | < 6.30 | 6.30 to 8.00 |
| CCOC(=O)c1c[nH]c2ncnc(-c3cccc(NC(=O)C4=CC(=O)CC4)c3)c12 [Example 5-36, ethyl 4-(3-{[(3-oxocyclopent-1-en-1-yl)carbonyl]amino}phenyl)-7H-pyrrolo[2,3-d]pyrimidine-5-carboxylate] | < 5.83 | 9.85 |  |  |
| C=C(C)C(=O)Nc1cc(C)cc(-c2ncnc3[nH]cc(C(=O)OCC)c23)c1 [Example 4-26, ethyl 4-{3-methyl-5-[(2-methylacryloyl)amino]phenyl}-7H-pyrrolo[2,3-d]pyrimidine-5-carboxylate] | < 5.83 | 9.72 |  |  |
| CCOC(=O)c1c[nH]c2ncnc(C3=CCC(C#N)CC3)c12 (stereo not drawn) [Example 1-90, ethyl 4-(4-cyanocyclohex-1-en-1-yl)-7H-pyrrolo[2,3-d]pyrimidine-5-carboxylate] |  |  | 6.30 to 8.00 | 6.30 to 8.00 |
| C=C(C)C(=O)Nc1cc(-c2ncnc3[nH]cc(C(=O)OCC)c23)cnc1OC [Example 4-32, ethyl 4-{6-methoxy-5-[(2-methylacryloyl)amino]pyridin-3-yl)-7H-pyrrolo[2,3-d]pyrimidine-5-carboxylate] | < 5.83 | 9.17 |  |  |
| C=C(Br)C(=O)Nc1cccc(-c2ncnc3[nH]cc(C(=O)OCC)c23)c1 [Example 5-5, ethyl 4-{3-[(2-bromoacryloyl)amino]phenyl}-7H-pyrrolo[2,3-d]pyrimidine-5-carboxylate] | 6.05 | 10.37 |  |  |
| CCOC(=O)c1c[nH]c2ncnc(-c3ccc(CO)nc3)c12 [Example 1-58, ethyl 4-[6-(hydroxymethyl)pyridin-3-yl]-7H-pyrrolo[2,3-d]pyrimidine-5-carboxylate] |  |  | < 6.30 | 6.30 to 8.00 |
| CCOC(=O)c1c[nH]c2ncnc(-c3cnn4c3CCCC4)c12 [Example 1-62, ethyl 4-(4,5,6,7-tetrahydropyrazolo[1,5-a]pyridin-3-yl)-7H-pyrrolo[2,3-d]pyrimidine-5-carboxylate] |  |  | < 6.30 | 6.30 to 8.00 |

Other lines, results leading:

| pIC50 (JAK2) | pIC50 (JAK3) | pIC50 (JAK2; given as range class) | pIC50 (JAK3; given as range class) | SMILES |
| --- | --- | --- | --- | --- |
| < 5.83 | 10.43 |  |  | C=CS(=O)(=O)Nc1cccc(-c2ncnc3[nH]cc(C(=O)OCC)c23)c1 [Example 10-1, Ethyl 4-{3-[(ethenylsulfonyl)amino]phenyl}-7H-pyrrolo[2,3-d]pyrimidine-5-carboxylate] |
| < 5.83 | 8.30 |  |  | C=C(C)C(=O)Nc1cccc(-c2ncnc3[nH]cc(C4=CCOCC4)c23)c1 [Example 21-5, N-(3-(5-(3,6-dihydro-2H-pyran-4-yl)-7H-pyrrolo[2,3-d]pyrimidin-4-yl)phenyl)methacrylamide] |
|  |  | 6.30 to 8.00 | 6.30 to 8.00 | COc1cccc(-c2ncnc3[nH]cc(-c4ccccc4OC)c23)c1 [Example 33-4, 5-(2-methoxphenyl)-4-(3-methoxyphenyl)-7H-pyrrolo[2,3-d]pyrimidine] |
|  |  | 6.30 to 8.00 | 6.30 to 8.00 | CCOC(=O)c1c[nH]c2ncnc(-c3cccc(NC(=O)NC#N)c3)c12 [Example 9-2, ethyl 4-(3-(3-cyanoureido)phenyl)-7H-pyrrolo[2,3-d]pyrimidine-5-carboxylate] |
| < 6.30 | 8.74 |  |  | C=C(C)C(=O)Nc1cccc(-c2ncnc3[nH]cc(-c4cncs4)c23)c1 [Example 21-7, N-(3-(5-(thiazol-5-yl)-7H-pyrrolo[2,3-d]pyrimidin-4-yl)phenyl)methacrylamide] |
| < 5.83 | 9.77 |  |  | C=C(C)C(=O)Nc1cccc(-c2ncnc3[nH]cc(-c4cccc(C)c4)c23)c1 [Example 20-1, 2-Methyl-N-{3-[5-(3-methylphenyl)-7H-pyrrolo[2,3-d]pyrimidin-4-yl]phenyl}prop-2-enamide] |
|  |  | < 6.30 | 6.30 to 8.00 | c1ccc(COc2cccc(-c3c[nH]c4ncnc(-c5ccccc5)c34)c2)cc1 [Example 32-5, 5-[3-(benzyloxy)phenyl]-4-phenyl-7H-pyrrolo[2,3-d]pyrimidine] |
